Measured values published in patent US8614238B2, “Cyclopentanecarboxamide derivatives, medicaments containing such compounds and their use” (Boehringer Ingelheim International GmbH, priority 2009, dated 2013).

What was measured:
[1] = tested on: N-42 cells; assay: 14C-acetate incorporation in N-42 cells; type: cell-based
Experimental: ^14C-Acetat Incorporation in N-42 Cells
30000 cells (N-42), in 24 well plates are incubated with the compound dissolved in 500 μL Krebs-Ringer-buffer for 60 min at 37° C., then incubated with 5 μL 1:10 14C-Acetate dilution (1 000 000 dpm) for 4 hours at 37° C. incubation, then washed with 500 μl PBS. 500 μL chloroform/methanol mix 1:1 and 175 μL sodium hydroxide solution was given in each well. The upper fraction is taken away and the lower fraction is vaporized. 50 μL chloroform/methanol mix 1:1 is again given in every well. 10 μL each are taken and given to scintillation vials with 4 mL Ultima Gold. Each vial is measured for 1 minute in a β-Counter.
Cerulenin, a literature known FAS inhibitor is used to validate the assay.

[2] = molecular target: T1, Fatty Acid Synthase (FAS) (Homo sapiens, UniProt P49327); assay: Human FAS Enzyme Assay; type: biochemical; settings: FAS enzyme prepared from HeLa cells; NADPH consumption; read-out: IC50 (potency range)
T1 construct: The FAS enzyme is prepared from HeLa cells; endogenous in cells; host or cells: HeLa cells
Excerpt: Fatty acid synthase is an enzyme complex that harbours seven enzymatic activities catalysing the reductive synthesis of long chain fatty acids from acetyl CoA and malonyl CoA to palmitate. When acetyl CoA and malonyl CoA are forming palmitate NADPH is consumed forming NADP. Since NADPH is fluorescent but not NADP the reaction can be measured by analysing the decrease in fluorescence.
Acetyl coenzyme A (cat.-no. A-2181) and malonyl coenzyme A (cat.-no. M-4263) are purchased from Sigma. NADPH (cat.-no. 30316) is purchased from Serva. The FAS enzyme is prepared from HeLa cells. All other material is of highest grade commercially available.
In the plates, 10 μl test compound in distilled water/DMSO (final concentration 0.1% DMSO) are mixed with 35 μl of a mixture of NADPH and acetyl CoA in phosphate buffer (f.c. 326 μM and 60 μM, respectively), and 45 μl FAS enzyme diluted in enzyme buffer. The plates are incubated for 60 minutes at 37° C. The reaction is then started by the addition of 10 μl malonyl CoA dissolved in water (200 μM). The decrease of the optical density in the wells is determined at 37° C. at a wavelength of 340 nm over 10 minutes. From these kinetic data, the slope (i.e. Vmax) is calculated and used for the calculation.
20 mM KH2PO4/K2HPO4, 1 mM EDTA, 1 mM DTT, 5% glycerol, pH 7.4
Each assay 96 well microtiter plate contains wells with vehicle controls instead of compound (1% DMSO in water) as reference for non-inhibited enzyme activity and wells without malonyl CoA as controls for non-specific NADPH degradation. The analysis of the data is performed by the calculation of the OD decrease in the presence of the test compound compared to the OD decrease of the test control wells after subtraction of the non-specific background without the malonyl CoA substrate (slope(sample)-slope(sample w/o malonyl CoA). An inhibitor of the FAS enzyme will give values between Control values (complete reaction without substance) and complete inhibition. Reported values will include: IC50; Top(Control: nmol NADPH oxidized/min/mg); Bottom (MaxInh: nmol NADPH oxidized/min/mg); RATIO (log(IC50 substance/IC50 control inhibitor)).

[3] = tested on: sebaceous glands; assay: In vivo activity on sebaceous glands in rats; design: species or system Wistar rats
Experimental: In vivo activity of the FAS inhibitors on sebaceous glands is determined as exemplified with the following experiment: Female Wistar rats [Crl:Wi(Han); Charles River, Germany] weighing 200-240 g are conventionally housed in Makrolon type cages at a constant temperature of 22±3° C., on a 12 h light/dark cycle. Food and water are provided ad libitum. The animals (n=7 per group) are orally treated once daily with 3, 10 and 30 mg/kg of compound 1.2 in a suspension with 0.5% Natrosol for seven days. All experimental procedures are conducted according to the German Animal Protection Law. Beginning with day 4 of treatment, at the highest dose effects on skin and coat of the animals could be detected. […] With longer treatment alopecia and cutaneous lesions also developed at the skin of the back. At day seven the animals are euthanized and representative tissue samples of the eye lid, muzzle and back skin are collected into 4% formaldehyde solution for microscopic examination. After trimming, the fixed tissues are processed, embedded in paraffin, sectioned at a thickness of approximately 4 μm and stained with hematoxylin-eosin (H&E). […] This lesion is sometimes accompanied by a slight inflammatory reaction.

[4] = female Wistar rats, highest dose (30 mg/kg orally once daily), beginning with day 4 of treatment

T1 sequence (P49327 whole entry): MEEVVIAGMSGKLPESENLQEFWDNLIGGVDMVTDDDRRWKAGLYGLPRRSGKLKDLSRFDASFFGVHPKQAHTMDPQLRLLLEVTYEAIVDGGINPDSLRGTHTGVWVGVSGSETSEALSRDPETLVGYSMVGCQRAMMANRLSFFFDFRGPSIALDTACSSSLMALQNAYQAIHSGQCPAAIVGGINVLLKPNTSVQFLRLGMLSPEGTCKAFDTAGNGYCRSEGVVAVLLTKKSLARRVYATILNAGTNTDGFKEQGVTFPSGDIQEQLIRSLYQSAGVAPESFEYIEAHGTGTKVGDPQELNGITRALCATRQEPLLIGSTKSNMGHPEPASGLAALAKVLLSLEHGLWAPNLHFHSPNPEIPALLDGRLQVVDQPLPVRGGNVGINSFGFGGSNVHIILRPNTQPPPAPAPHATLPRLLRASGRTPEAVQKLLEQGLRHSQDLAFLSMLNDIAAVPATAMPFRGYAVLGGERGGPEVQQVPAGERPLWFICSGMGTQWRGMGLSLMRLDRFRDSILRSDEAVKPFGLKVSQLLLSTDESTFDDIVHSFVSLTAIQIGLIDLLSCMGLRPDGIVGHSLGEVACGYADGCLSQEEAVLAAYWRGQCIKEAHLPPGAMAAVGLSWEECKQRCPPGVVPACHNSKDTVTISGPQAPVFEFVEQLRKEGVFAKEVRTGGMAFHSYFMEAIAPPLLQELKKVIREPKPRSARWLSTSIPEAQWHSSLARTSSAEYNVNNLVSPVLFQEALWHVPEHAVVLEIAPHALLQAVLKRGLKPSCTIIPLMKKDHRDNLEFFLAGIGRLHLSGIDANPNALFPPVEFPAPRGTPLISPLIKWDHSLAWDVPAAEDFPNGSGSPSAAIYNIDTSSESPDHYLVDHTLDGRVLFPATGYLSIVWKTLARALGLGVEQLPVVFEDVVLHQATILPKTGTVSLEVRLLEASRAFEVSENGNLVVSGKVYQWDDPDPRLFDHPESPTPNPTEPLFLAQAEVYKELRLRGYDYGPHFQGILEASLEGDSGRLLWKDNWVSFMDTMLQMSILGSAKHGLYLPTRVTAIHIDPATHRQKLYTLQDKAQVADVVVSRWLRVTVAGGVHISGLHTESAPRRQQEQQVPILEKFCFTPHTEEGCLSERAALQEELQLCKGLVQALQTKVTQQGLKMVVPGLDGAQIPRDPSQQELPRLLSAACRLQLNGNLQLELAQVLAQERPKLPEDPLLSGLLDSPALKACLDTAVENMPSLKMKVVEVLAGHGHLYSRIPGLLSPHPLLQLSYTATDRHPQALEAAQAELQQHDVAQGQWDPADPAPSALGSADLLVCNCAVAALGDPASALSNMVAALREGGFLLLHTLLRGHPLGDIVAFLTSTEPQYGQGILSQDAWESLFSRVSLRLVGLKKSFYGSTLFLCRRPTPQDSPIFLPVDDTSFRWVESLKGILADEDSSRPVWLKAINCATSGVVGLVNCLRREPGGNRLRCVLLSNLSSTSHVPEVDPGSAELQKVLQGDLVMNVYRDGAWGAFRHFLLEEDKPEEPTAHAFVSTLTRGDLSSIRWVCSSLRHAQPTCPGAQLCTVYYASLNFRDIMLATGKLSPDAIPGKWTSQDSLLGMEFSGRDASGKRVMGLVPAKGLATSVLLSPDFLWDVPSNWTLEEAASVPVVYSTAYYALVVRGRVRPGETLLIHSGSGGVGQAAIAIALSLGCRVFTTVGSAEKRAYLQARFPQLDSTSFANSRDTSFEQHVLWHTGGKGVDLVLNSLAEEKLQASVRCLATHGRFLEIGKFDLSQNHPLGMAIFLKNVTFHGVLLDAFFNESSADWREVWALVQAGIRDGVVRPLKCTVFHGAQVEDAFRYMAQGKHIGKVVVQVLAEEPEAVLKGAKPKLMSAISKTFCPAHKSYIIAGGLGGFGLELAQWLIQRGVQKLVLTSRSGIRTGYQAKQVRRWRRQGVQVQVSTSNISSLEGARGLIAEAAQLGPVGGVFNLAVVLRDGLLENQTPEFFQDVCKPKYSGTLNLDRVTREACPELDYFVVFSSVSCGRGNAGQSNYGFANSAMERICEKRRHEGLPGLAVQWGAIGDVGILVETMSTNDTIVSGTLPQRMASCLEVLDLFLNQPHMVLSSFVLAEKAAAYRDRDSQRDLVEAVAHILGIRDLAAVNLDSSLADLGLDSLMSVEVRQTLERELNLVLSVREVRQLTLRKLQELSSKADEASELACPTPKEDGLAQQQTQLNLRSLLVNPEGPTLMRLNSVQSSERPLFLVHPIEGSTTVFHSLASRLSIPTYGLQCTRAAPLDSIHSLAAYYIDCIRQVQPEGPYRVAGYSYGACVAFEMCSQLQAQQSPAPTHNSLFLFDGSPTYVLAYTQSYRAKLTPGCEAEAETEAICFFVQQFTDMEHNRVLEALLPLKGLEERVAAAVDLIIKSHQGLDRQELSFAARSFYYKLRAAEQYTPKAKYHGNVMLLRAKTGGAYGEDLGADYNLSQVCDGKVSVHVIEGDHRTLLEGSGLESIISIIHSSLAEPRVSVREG

IC50 [2] [nM] | Compound | other results
≤ 500 | CCC(=O)N[C@H]1CC[C@@H](C(=O)N(C)c2ccc(-c3nc4ccccc4[nH]3)cc2)C1 [Example 2.1, (1R,3S)-3-Propionylamino-cyclopentanecarboxylic acid N-[4′-(1H-benzoimidazol-2-yl)-phenyl]-N-methyl-amide] | % control 14C acetate incorporation ([1]; compound at 10 μM): 80.8 % control
500 to 3000 | CC(=O)N[C@H]1CC[C@@H](C(=O)N(C)c2ccc(-c3nc4ccccc4[nH]3)cc2)C1 [Example 2.2, (1R,3S)-3-Acetylamino-cyclopentanecarboxylic acid N-[4′-(1H-benzoimidazol-2-yl)-phenyl]-N-methyl-amide] | 
500 to 3000 | CC(C)C(=O)N[C@H]1CC[C@@H](C(=O)N(C)c2ccc(-c3nc4ccccc4[nH]3)cc2)C1 [Example 2.3, (1R,3S)-3-Isobutyrylamino-cyclopentanecarboxylic acid N-[4′-(1H-benzoimidazol-2-yl)-phenyl]-N-methyl-amide] | 
≤ 500 | CCNC(=O)N[C@H]1CC[C@@H](C(=O)N(C)c2ccc(-c3nc4ccccc4[nH]3)cc2)C1 [Example 2.4, (1R,3S)-3-(3-Ethyl-ureido)-cyclopentanecarboxylic acid N-[4′-(1H-benzoimidazol-2-yl)-phenyl]-N-methyl-amide] | 
500 to 3000 | CN(C)CCCCCC(=O)N[C@H]1CC[C@@H](C(=O)N(C)c2ccc(-c3nc4ccccc4[nH]3)cc2)C1 [Example 2.5, (1R,3S)-3-(6-Dimethylamino-hexanoylamino)-cyclopentanecarboxylic acid N-[4′-(1H-benzoimidazol-2 yl)-phenyl]-N-methyl-amide] | 
≤ 500 | CCC(=O)N[C@H]1CC[C@@H](C(=O)N(C)c2ccc(-c3ccccc3)cc2)C1 [Example 3.1, (1R,3S)-3-Propionylamino-cyclopentanecarboxylic acid N-biphenyl-4-yl-N-methyl-amide] | % control 14C acetate incorporation ([1]; compound at 10 μM): 76.8 % control
≤ 500 | CC(C)C(=O)N[C@H]1CC[C@@H](C(=O)N(C)c2ccc(-c3ccccc3)cc2)C1 [Example 3.2, (1R,3S)-3-Isobutyrylamino-cyclopentanecarboxylic acid N-biphenyl-4-yl-N-methyl-amide] | 
≤ 500 | CC(=O)N[C@H]1CC[C@@H](C(=O)N(C)c2ccc(-c3ccccc3)cc2)C1 [Example 3.3, (1R,3S)-3-Acetylamino-cyclopentanecarboxylic acid N-biphenyl-4-yl-N-methyl-amide] | 
500 to 3000 | CCNC(=O)N[C@H]1CC[C@@H](C(=O)N(C)c2ccc(-c3ccccc3)cc2)C1 [Example 3.4, (1R,3S)-3-(3-Ethyl-ureido)-cyclopentanecarboxylic acid N-biphenyl-4-yl-N-methyl-amide] | 
500 to 3000 | CN(C)CCCCCC(=O)N[C@H]1CC[C@@H](C(=O)N(C)c2ccc(-c3ccccc3)cc2)C1 [Example 3.5, (1R,3S)-3-(6-Dimethylamino-hexanoylamino)-cyclopentanecarboxylic acid N-biphenyl-4-yl-N-methyl-amide] | 
500 to 3000 | CCNC(=O)N[C@H]1CC[C@@H](C(=O)N(C)c2ccc(-c3nc4ccccc4n3C)cc2)C1 [Example 4.1, (1R,3S)-3-(3-Ethyl-ureido)-cyclopentanecarboxylic acid N-methyl-N-[4-(1-methyl-1H-benzoimidazol-2-yl)-phenyl]-amide] | 
500 to 3000 | CN(C)CCCCCC(=O)N[C@H]1CC[C@@H](C(=O)N(C)c2ccc(-c3nc4ccccc4n3C)cc2)C1 [Example 4.2, (1R,3S)-3-(6-Dimethylamino-hexanoylamino)-cyclopentanecarboxylic acid N-methyl-N-[4-(1-methyl-1H-benzoimidazol-2-yl)-phenyl]-amide] | 
≤ 500 | CCC(=O)N[C@H]1CC[C@@H](C(=O)N(C)c2ccc(-c3nc4ccccc4n3C)cc2)C1 [Example 5.1, (1R,3S)-3-Propionylamino-cyclopentanecarboxylic acid N-methyl-N-[4-(1-methyl-1H-benzoimidazol-2-yl)-phenyl]-amide] | % control 14C acetate incorporation ([1]; compound at 10 μM): 85.7 % control
500 to 3000 | CCC(=O)N[C@H]1CC[C@@H](C(=O)N(C)c2ccc(-c3cn4ccccc4n3)cc2)C1 [Example 5.2, (1R,3S)-3-Propionylamino-cyclopentanecarboxylic acid N-[4-(imidazo[1,2-a]pyridin-2-yl)-phenyl]-N-methyl-amide] | 

Second part, the compound before the results:

Compound | IC50 [2] [nM] | other results
C/C=C/C/C=C/CCC(=O)[C@H]1O[C@H]1C(N)=O [Cerulenin, reference compound] |  | % control 14C acetate incorporation ([1]; compound at 100 μM): 73.3 % control
CCNC(=O)N[C@H]1CC[C@@H](C(=O)N(C)c2ccc(-c3nc4ccccc4o3)cc2)C1 [Example 1.1, (1R,3S)-3-(3-Ethyl-ureido)-cyclopentanecarboxylic acid N-(4-benzooxazol-2-yl-phenyl)-N-methyl-amide] | 500 to 3000 | 
CCC(=O)N[C@H]1CC[C@@H](C(=O)N(C)c2ccc(-c3nc4ccccc4o3)cc2)C1 [Example 1.2, (1R,3S)-3-Propionylamino-cyclopentanecarboxylic acid N-(4-benzooxazol-2-yl-phenyl)-N-methyl-amide] | ≤ 500 | % control 14C acetate incorporation ([1]; compound at 10 μM): 64.1 % control; microscopic examination of skin (eye lid, muzzle, back skin) ([3]; female Wistar rats, 3, 10 and 30 mg/kg orally once daily for seven days, all dose groups): treatment-related diffuse atrophy of sebaceous glands of the skin; effects on skin and coat of the animals [3, 4]: progressive cranial alopecia; skin of the mouth and eye lid [3, 4]: reddened and swollen
CC(=O)N[C@H]1CC[C@@H](C(=O)N(C)c2ccc(-c3nc4ccccc4o3)cc2)C1 [Example 1.3, (1R,3S)-3-Acetylamino-cyclopentanecarboxylic acid N-(4-benzooxazol-2-yl-phenyl)-N-methyl-amide] | ≤ 500 | % control 14C acetate incorporation ([1]; compound at 10 μM): 81.7 % control
CN(C)CCCCCC(=O)N[C@H]1CC[C@@H](C(=O)N(C)c2ccc(-c3nc4ccccc4o3)cc2)C1 [Example 1.4, (1R,3S)-3-(6-Dimethylamino-hexanoylamino)-cyclopentanecarboxylic acid N-(4-benzooxazol-2-yl-phenyl)-N-methyl-amide] | 500 to 3000 | 
COCC(=O)N[C@H]1CC[C@@H](C(=O)N(C)c2ccc(-c3nc4ccccc4o3)cc2)C1 [Example 1.5, (1R,3S)-3-(2-Methoxy-acetylamino)-cyclopentanecarboxylic acid N-(4-benzooxazol-2-yl-phenyl)-N-methyl-amide] | 500 to 3000 | 
CCCC(=O)N[C@H]1CC[C@@H](C(=O)N(C)c2ccc(-c3nc4ccccc4o3)cc2)C1 [Example 1.6, (1R,3S)-3-Butyrylamino-cyclopentanecarboxylic acid N-(4-benzooxazol-2-yl-phenyl)-N-methyl-amide] | ≤ 500 | % control 14C acetate incorporation ([1]; compound at 10 μM): 81.0 % control
CN(C)C(=O)N[C@H]1CC[C@@H](C(=O)N(C)c2ccc(-c3nc4ccccc4o3)cc2)C1 [Example 1.7, (1R,3S)-3-(3,3-Dimethyl-ureideo)-cyclopentanecarboxylic acid N-(4-benzooxazol-2-yl-phenyl)-N-methyl-amide] | ≤ 500 | 
CN(C(=O)[C@@H]1CC[C@H](NC(=O)C(F)F)C1)c1ccc(-c2nc3ccccc3o2)cc1 [Example 1.8, (1R,3S)-3-(2,2-Difluoro-acetylamino)-cyclopentanecarboxylic acid N-(4-benzooxazol-2-yl-phenyl)-N-methyl-amide] | ≤ 500 | 
